From US11344630B2, “Methods and compositions for red-shifted chromophore substitution for optogenetic applications” (Washington University, priority 2014, dated 2022)
“Also recorded” adds a separate entry of the source.

Assays:
[1] = Absorbance spectra of retinoid HPLC peaks; format: physicochemical; settings: predominant retinoid species of zebrafish retina extracts, reduced with sodium borohydride
Source text: (§1) FIG. 1A, FIG. 1B, FIG. 1C, FIG. 1D, FIG. 1E, FIG. 1F, FIG. 1G, FIG. 1H, FIG. 1I, FIG. 1J and FIG. 1K depict images and graphs showing that diverse species employ a vitamin A1 to vitamin A2 switch to red-shift the spectral sensitivity of their photoreceptors. (FIG. 1A) Depicts the conversion of all-trans retinol (vitamin A1) into all-trans 3,4-didehydroretinol (vitamin A2). (FIG. 1B, FIG. 1C, FIG. 1D) Depict several species that switch between the use of vitamin A1 and vitamin A2 for vision at different stages of their life cycle. (FIG. 1B) Sea lamprey; (FIG. 1C) Coho salmon; and (FIG. 1D) Northern leopard frog. (FIG. 1E, FIG. 1F, FIG. 1G, FIG. 1H) depict graphs showing that thyroid hormone treatment of adult zebrafish induces quantitative conversion of retinol into 3,4-didehydroretinol. Adult zebrafish were treated with 300 μg/liter thyroid hormone (L-thyroxine) in their water for three weeks. The retinas were then harvested, and retinoid extracts were reduced with sodium borohydride and analyzed by HPLC. (FIG. 1E) Depicts the position of peak #1 in control zebrafish. (FIG. 1F) Depicts the position of peak #2 in TH-treated zebrafish. […] Note that only vitamin A1 and its derivatives (the retinal form has been reduced to the alcohol form) are detected in the ventral RPE whereas both vitamin A1 and vitamin A2 are present in nearly equal proportions in the dorsal RPE. […]

[2] = target: T1, archaerhodopsin proton pump, AR-3 (Halorubrum sodomense, UniProt P96787); settings: cited from earlier work; for wavelength of half-maximal absorption on the red slope of the curve: AR-3 expressed in E. coli, chromophore as labelled
T1 construct: host or cells: E. coli
T1 sequence (P96787 7-258): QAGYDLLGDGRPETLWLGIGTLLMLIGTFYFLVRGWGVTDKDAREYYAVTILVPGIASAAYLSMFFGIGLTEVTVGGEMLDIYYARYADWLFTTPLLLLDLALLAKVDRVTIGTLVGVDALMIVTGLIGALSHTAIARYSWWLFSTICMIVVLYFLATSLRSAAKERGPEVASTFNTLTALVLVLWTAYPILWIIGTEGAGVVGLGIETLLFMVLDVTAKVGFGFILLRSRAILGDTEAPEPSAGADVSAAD

optogenetic actuators = settings: replacing retinal with 3,4-didehydroretinal, in vitro; cited from earlier work
red single cones = assay: Suction electrode recordings of red single cones from wild-type and cyp27c1 mutant fish; format: in vivo; settings: cyp27c1 mutant zebrafish after thyroid hormone treatment
Source text: FIG. 11A and FIG. 11B depict graphs presenting suction electrode recordings of red single cones from wild-type and Cyp27c1 mutant fish. […] (FIG. 11A) Untreated wild-type and mutant zebrafish have similar sensitivity.
To continue to probe the effects of Cyp27c1, we generated cyp27c1 null mutant zebrafish. […] We then utilized the mutant zebrafish to identify their ability to covert retinol (A1) to 3,4-didehydroretinol (A2). […] Suction electrode recordings of red single cones from wild-type and cyp27c1 mutant fish were performed.

Cyp27c1 transcript = assay: RNA-seq expression profiling of RPE from thyroid hormone-treated zebrafish vs vehicle-treated controls; format: in vivo; settings: zebrafish treated 3 weeks with thyroid hormone vs vehicle-treated controls
Source text: FIG. 2A and FIG. 2B depict the results of RNA-seq-based expression profiling of zebrafish and bullfrog retinal pigment epithelium (RPE). (FIG. 2A) RNA-seq results comparing the expression levels of individual transcripts (shown as black circles) from RPE derived from zebrafish treated for 3 weeks with thyroid hormone and vehicle-treated controls. The location of the Cyp27c1 transcript is circled in red. (FIG. 2B) RNA-seq results comparing the expression levels of individual transcripts (shown as black circles) from dorsal and ventral bullfrog RPE. The location of the Cyp27c1 transcript is circled in red.
It has long been postulated that the conversion of retinal into 3,4-dehydroretinal in migratory fish is mediated by a ‘terminal ring dehydrogenase’^8. […] To identify the transcript encoding this enzyme, we carried out transcriptome profiling of thyroid hormone-treated fish and compared them to vehicle-treated controls. We hypothesized that the enzyme was likely to be expressed in one of three tissues: retinal pigment epithelium (which lies immediately adjacent to photoreceptors and is a known source of retinoids), retina or liver. We obtained RNA-seq data for RPE and identified an excellent candidate transcript, flj13639. This transcript encodes an ‘orphan’ member of the cytochrome P450 family of monooxygenases, Cyp27c1 (FIG. 2A). […]

adult zebrafish = assay: Thyroid hormone treatment of zebrafish, retinoid content of retinas by HPLC; format: in vivo
Source text: as §1

Opn1mw4 = assay: RNA-seq expression profiling of RPE samples from thyroid hormone-treated zebrafish (photoreceptor transcripts); format: in vivo; settings: thyroid hormone-treated 'RPE' samples vs controls
Source text: We therefore analyzed a range of photoreceptor gene transcripts in our thyroid hormone-treated ‘RPE’ and controls, and found similar levels of photoreceptor contamination between the two samples.

HEK293 cells = assay: Cyp27c1 expression in HEK293 cells incubated with retinol, retinoids by HPLC; format: cell-based, human; settings: transfected HEK293 cells incubated with retinol 24 hours, vs empty vector
Protocol: FIG. 5A, FIG. 5B, FIG. 5C, FIG. 5D and FIG. 5E depict the results of introducing an expression construct containing the zebrafish ortholog of Cyp27c1 into HEK293 cells and incubating with retinol for 24 hours (vitamin A1). […] (FIG. 5D, FIG. 5E) depicts the HPLC profile of commercially obtained chemical standards A1 (FIG. 5D) and A2 (FIG. 5E).
Next, we determined if Cyp27c1 is sufficient to convert retinal to 3,4-didehydroretinal. We cloned a full-length zebrafish Cyp27c1 cDNA and a full-length human Cyp27c1 cDNA into a mammalian expression vector and expressed it in HEK293 cells. FIG. 3 confirms that the recombinant zebrafish and human Cyp27c1 are expressed in the HEK293 cells.

## CC1=C(/C=C/C(C)=C/C=C/C(C)=C/CO)C(C)(C)CCC1 [retinol, all-trans retinol]
[1]
  absorbance maximum (peak): 326 nm

## CC1=C(/C=C/C(C)=C/C=C/C(C)=C/CO)C(C)(C)CC=C1 [3,4-didehydroretinol, all-trans 3,4-didehydroretinol]
[1]
  absorbance maximum (peak): 355 nm

## CC1=C(/C=C/C(C)=C/C=C/C(C)=C/C=O)C(C)(C)CC=C1 [3,4-didehydroretinal]
[2]; 3,4-didehydroretinal in place of retinal in AR-3
  red-shift of wavelength of half-maximal absorption: 40 nm
[2]
  wavelength of half-maximal absorption on the red slope of the curve: 639 nm
Optogenetic actuators
  red-shift of action spectra: greater than 30 nm

## N[C@@H](Cc1cc(I)c(Oc2cc(I)c(O)c(I)c2)c(I)c1)C(=O)O [thyroid hormone, L-thyroxine]
Red single cones
  red-shift of red cone sensitivity: fail to red-shift
Cyp27c1 transcript
  Cyp27c1 transcript expression level in RPE: markedly upregulated
Adult zebrafish; thyroid hormone treated cyp27c1 null mutant zebrafish
  HPLC profile of retinoids: only the presence of A1
Adult zebrafish; wild-type adult zebrafish, 300 μg/liter L-thyroxine in water, three weeks, HPLC
  conversion of retinal into 3,4-dehydroretinal (A1 to A2) in retinas: quantitative conversion of retinal into 3,4-dehydroretinal; also recorded: conversion of A1 to A2
Opn1mw4
  Opn1mw4 transcript upregulation: 4 fold

## CC1=C(/C=C/C(C)=C/C=C/C(C)=C/C=O)C(C)(C)CCC1 [retinal, all-trans retinal]
[2]
  wavelength of half-maximal absorption on the red slope of the curve: 599 nm

B1: zebrafish Cyp27c1: cytochrome P450, family 27, subfamily C, polypeptide 1 encoded by the cyp27c1 gene from Danio rerio (protein, UniProt A8WGA0 1-540, looked up)
Cytochrome P450 27C1: MALQSTILHMARKNLLQESCRQLLIQTHGLHKSVASGSLEIAAHSQADLKEESAVSPAEEVQKAARVKSLKEMPGPSTVANLLEFFYRDGFSRIHEIQMEHAKKYGKIFKSRFGPQFVVSIADRDMVAQVLRSESATPQRGNMESWKEYRDLRGRSTGLISAEGDEWLKMRSVLRQLIMRPRDVAVFSSDVNDVVADLVKRVKTLRSQQDDSQTVLNINDLFFKYAMEGVATILYETRLGCLENEIPKMSQEYITALHLMFSSFKTTMYAGAIPKWLRPIIPKPWEEFCSSWDGLFKFSQIHVDKRLSEIKKQMEKSEEIKGGLLTHMLVTREMNLEEIYANMTEMLLAGVDTTSFTLSWSTYLLARHPTIQQQIFEEVDRVLGGRVPTGEDVPYLPLIRGLVKETLRLFPVLPGNGRVTHDDLIVGGYLIPKGTQLALCHYSTSMDEENFPRPEEFRPDRWIRKDASDRVDNFGSIPFGYGIRSCIGRRIAELEMHLALTQLLQNFHIEVSPQTTEVHAKTHGLLCPGASINLRFTDRK
HEK293 cells
  formation of 3,4-didehydroretinol (A2) from retinol: significant quantities of 3,4-didehydroretinol

B2: human Cyp27c1: cytochrome P450, family 27, subfamily C, polypeptide 1 encoded by the cyp27c1 gene from Homo sapiens (protein, UniProt Q4G0S4 81-542, looked up)
Cytochrome P450 27C1: ANLAEFFCRDGFSRIHEIQQKHTREYGKIFKSHFGPQFVVSIADRDMVAQVLRAEGAAPQRANMESWREYRDLRGRATGLISAEGEQWLKMRSVLRQRILKPKDVAIYSGEVNQVIADLIKRIYLLRSQAEDGETVTNVNDLFFKYSMEGVATILYESRLGCLENSIPQLTVEYIEALELMFSMFKTSMYAGAIPRWLRPFIPKPWREFCRSWDGLFKFSQIHVDNKLRDIQYQMDRGRRVSGGLLTYLFLSQALTLQEIYANVTEMLLAGVDTTSFTLSWTVYLLARHPEVQQTVYREIVKNLGERHVPTAADVPKVPLVRALLKETLRLFPVLPGNGRVTQEDLVIGGYLIPKGTQLALCHYATSYQDENFPRAKEFRPERWLRKGDLDRVDNFGSIPFGHGVRSCIGRRIAELEIHLVVIQLLQHFEIKTSSQTNAVHAKTHGLLTPGGPIHVRFVNRK
HEK293 cells
  formation of 3,4-didehydroretinol (A2) from retinol: significant quantities of 3,4-didehydroretinol
